Experiment: Human HepG2 cell viability assay in 384 well format
Format: toxicity, cell-based
Parameters: dose 125 nL, time 70.5 hour; cytotoxicity at 70.5 h: concentration not given beside the values
Settings: HepG2 cells, read-out: Inhibition

**Q.** For `COc1cc(CNC2CCCN(c3ncccn3)C2)cc2c1OCO2` (configuration not stated), which cytotoxicity at 70.5 h is on record?
**A.** The cytotoxicity at 70.5 h was -5.86%.

**Q.** With `O=C(C1CC1)N(Cc1ccc2cc[nH]c2c1)C1CC1` as the compound, how does the cytotoxicity at 70.5 h read?
**A.** The cytotoxicity at 70.5 h was -22.5%.

**Q.** For `Cc1occc1CNC(=O)C1CCCN1C(=O)C1CC1` (configuration not stated), which cytotoxicity at 70.5 h is on record?
**A.** Its cytotoxicity at 70.5 h is -6.76%.

**Q.** For `CN(Cc1ncc(C(C)(C)C)o1)CC1CCCN1c1cccnn1` (configuration not stated), which cytotoxicity at 70.5 h is on record?
**A.** The cytotoxicity at 70.5 h was 23.4%.

**Q.** Which cytotoxicity at 70.5 h does the source give for `COc1ccc(Cl)cc1-c1cc(NC(=O)C2CNC(=O)N2)[nH]n1` (configuration not stated) here?
**A.** The cytotoxicity at 70.5 h was 1.69%.

**Q.** Which cytotoxicity at 70.5 h does the source give for `Cc1cc(C(=O)N2CCC3(CC2)CN(CCN(C)C)C(=O)O3)nc(C)n1` here?
**A.** The cytotoxicity at 70.5 h was -6.56%.

**Q.** For `COc1ccc(CN(C(=O)C2CCCO2)c2ccncc2)cc1` (configuration not stated), which cytotoxicity at 70.5 h is on record?
**A.** Its cytotoxicity at 70.5 h is -8.37%.

**Q.** For `Cc1cnn(CC2CCCN2C(=O)CCc2cscn2)c1` (configuration not stated), which cytotoxicity at 70.5 h is on record?
**A.** The cytotoxicity at 70.5 h was -13.6%.

**Q.** With `COCC(=O)N1CC(=O)c2sc(Nc3ccc(F)cc3F)nc2C1` as the compound, how does the cytotoxicity at 70.5 h read?
**A.** The cytotoxicity at 70.5 h was 0.281%.

**Q.** With `Cc1cc(S(=O)(=O)Nc2onc(C)c2C)sc1C` as the compound, how does the cytotoxicity at 70.5 h read?
**A.** Its cytotoxicity at 70.5 h is -5.02%.

**Q.** Which cytotoxicity at 70.5 h does the source give for `O=C(NCCc1ccccc1F)NCC(O)c1cccc(F)c1` (configuration not stated) here?
**A.** Its cytotoxicity at 70.5 h is -7.16%.

**Q.** With `CC(=O)NCCNc1nccc(CCC(F)(F)F)n1` as the compound, how does the cytotoxicity at 70.5 h read?
**A.** The cytotoxicity at 70.5 h was -10.3%.

**Q.** Which cytotoxicity at 70.5 h does the source give for `CCn1cc(NS(=O)(=O)c2ccc(F)cc2)c(C(=O)NCC(C)C)n1` here?
**A.** Its cytotoxicity at 70.5 h is -1.23%.

**Q.** With `COc1ccc(F)cc1C(=O)N1C[C@H]2CC[C@@H]1CN(c1ncccn1)C2` as the compound, how does the cytotoxicity at 70.5 h read?
**A.** The cytotoxicity at 70.5 h was -9.41%.

**Q.** Which cytotoxicity at 70.5 h does the source give for `CC(=O)NC1CCCN(C(=O)NCc2ccc(-c3ccn[nH]3)cc2)C1` (configuration not stated) here?
**A.** The cytotoxicity at 70.5 h was 3.22%.

**Q.** For `O=C(CC1CC1)NCc1cn2c(n1)CN(C(=O)c1cccnc1)CC2`, which cytotoxicity at 70.5 h is on record?
**A.** Its cytotoxicity at 70.5 h is -7.69%.

**Q.** With `CN1CCC(Nc2cc(Cl)ccc2OCC(F)(F)F)C1=O` (configuration not stated) as the compound, how does the cytotoxicity at 70.5 h read?
**A.** The cytotoxicity at 70.5 h was -1.29%.

**Q.** Which cytotoxicity at 70.5 h does the source give for `Cn1nc(C(C)(C)C)cc1NC(=O)Cn1ccnc1` here?
**A.** The cytotoxicity at 70.5 h was -10.5%.

**Q.** With `Cc1ccccc1CN1CCCN(CCN2CCOC2=O)CC1` as the compound, how does the cytotoxicity at 70.5 h read?
**A.** Its cytotoxicity at 70.5 h is -1.61%.

**Q.** With `Cc1ccc(CN2C[C@H]3CN(C(=O)c4ccno4)CCN3C2=O)cc1` as the compound, how does the cytotoxicity at 70.5 h read?
**A.** The cytotoxicity at 70.5 h was 6.23%.

**Q.** Which cytotoxicity at 70.5 h does the source give for `CN(C)C(=O)CN1CCC2(C1)CN(CC1CCOC1)C2` (configuration not stated) here?
**A.** The cytotoxicity at 70.5 h was 11.8%.

**Q.** With `Fc1ccc(OCCCN2CC(n3cccn3)C2)cc1` as the compound, how does the cytotoxicity at 70.5 h read?
**A.** Its cytotoxicity at 70.5 h is -8.19%.

**Q.** Which cytotoxicity at 70.5 h does the source give for `CCc1ccc(C(=O)N2CCN(CCO)CC2)o1` here?
**A.** Its cytotoxicity at 70.5 h is -1.18%.

**Q.** With `CS(=O)(=O)CCn1ccc(NC(=O)Cc2c[nH]c3ccccc23)n1` as the compound, how does the cytotoxicity at 70.5 h read?
**A.** The cytotoxicity at 70.5 h was 5.18%.

**Q.** With `N#Cc1ccnc(N2CCN(C(=O)NC3CCS(=O)(=O)C3)CC2)c1` (configuration not stated) as the compound, how does the cytotoxicity at 70.5 h read?
**A.** The cytotoxicity at 70.5 h was -7.36%.

**Q.** For `Cc1noc(C)c1CN1CCCC2(CCN(C(=O)CC3CC3)C2)C1` (configuration not stated), which cytotoxicity at 70.5 h is on record?
**A.** The cytotoxicity at 70.5 h was 41.6%.

**Q.** With `COc1ccccc1CCNC(=O)CN1CCCC1c1noc(C)n1` (configuration not stated) as the compound, how does the cytotoxicity at 70.5 h read?
**A.** The cytotoxicity at 70.5 h was -3.07%.

**Q.** Which cytotoxicity at 70.5 h does the source give for `O=C(c1ccc(N2CCCCCC2)nn1)N1CCc2ccccc21` here?
**A.** The cytotoxicity at 70.5 h was -3.2%.

**Q.** Which cytotoxicity at 70.5 h does the source give for `O=C(Cc1cccs1)NC1(C(=O)NCC2CC2)CCCC1` here?
**A.** The cytotoxicity at 70.5 h was -7.33%.

**Q.** With `CC(C)N(C)CCC(=O)N1CCCC(c2ccc(C(=O)O)cc2)C1` (configuration not stated) as the compound, how does the cytotoxicity at 70.5 h read?
**A.** The cytotoxicity at 70.5 h was -7.94%.

**Q.** With `Cc1nc(CN[C@H]2CCCN(C(=O)OC(C)(C)C)C2)cs1` as the compound, how does the cytotoxicity at 70.5 h read?
**A.** Its cytotoxicity at 70.5 h is -3.34%.

**Q.** With `CCCS(=O)(=O)N1CCOC2(CCCN(c3ccccn3)C2)C1` (configuration not stated) as the compound, how does the cytotoxicity at 70.5 h read?
**A.** Its cytotoxicity at 70.5 h is -13.3%.

**Q.** For `O=C(NCCc1ccccc1)c1cccc(S(=O)(=O)NC2CCOC2)c1` (configuration not stated), which cytotoxicity at 70.5 h is on record?
**A.** The cytotoxicity at 70.5 h was 19.4%.

**Q.** With `CCc1nc(C2CCCN(C(=O)c3c(C)noc3C)C2)no1` (configuration not stated) as the compound, how does the cytotoxicity at 70.5 h read?
**A.** Its cytotoxicity at 70.5 h is 20.6%.

**Q.** With `CC(C)C(=O)N1CCC(C)(c2cc(O)[nH]n2)CC1` as the compound, how does the cytotoxicity at 70.5 h read?
**A.** The cytotoxicity at 70.5 h was 20%.

**Q.** Which cytotoxicity at 70.5 h does the source give for `COCCC(=O)NC1CCN(CC2(c3cccc(F)c3)CCCC2)CC1` here?
**A.** The cytotoxicity at 70.5 h was 0.0702%.

**Q.** For `Cc1ccc(CNC(C)(C)c2noc(C(C)(C)C)n2)o1`, which cytotoxicity at 70.5 h is on record?
**A.** Its cytotoxicity at 70.5 h is -1.89%.

**Q.** For `Cc1cnn(C2CCCN(C(=O)c3cc(Cl)c4c(c3)OCO4)C2)c1` (configuration not stated), which cytotoxicity at 70.5 h is on record?
**A.** The cytotoxicity at 70.5 h was 7.73%.

**Q.** For `CCc1c(O)nc2nc(N3CCOCC3)nn2c1C`, which cytotoxicity at 70.5 h is on record?
**A.** The cytotoxicity at 70.5 h was -11%.

**Q.** With `CCS(=O)(=O)N1CC[C@H]2C(=O)N(Cc3cccnc3)CCO[C@H]2C1` as the compound, how does the cytotoxicity at 70.5 h read?
**A.** The cytotoxicity at 70.5 h was -13.9%.

**Q.** For `COc1ccc(CNC(=O)Nc2cccnc2N2CCCC2)cc1O`, which cytotoxicity at 70.5 h is on record?
**A.** Its cytotoxicity at 70.5 h is -8.02%.

**Q.** With `CC(=O)NCC1CCN(C(=O)NCc2ccc3c(c2)OCCO3)CC1` as the compound, how does the cytotoxicity at 70.5 h read?
**A.** The cytotoxicity at 70.5 h was -16.3%.

**Q.** With `COc1nc(N2CCN(C(C)=O)CC2)ncc1Br` as the compound, how does the cytotoxicity at 70.5 h read?
**A.** The cytotoxicity at 70.5 h was -3.12%.

**Q.** Which cytotoxicity at 70.5 h does the source give for `Cc1ccc(NCc2nc3n(n2)CCCCC3)c(C)c1` here?
**A.** The cytotoxicity at 70.5 h was 6.51%.

**Q.** Which cytotoxicity at 70.5 h does the source give for `O=C(c1cc(=O)c(OCc2ccccc2)co1)N1CCSCC1` here?
**A.** Its cytotoxicity at 70.5 h is -18.7%.

**Q.** With `O=C(c1ccno1)N1CCc2ncnc(-c3ccncc3)c2CC1` as the compound, how does the cytotoxicity at 70.5 h read?
**A.** Its cytotoxicity at 70.5 h is 1.37%.

**Q.** Which cytotoxicity at 70.5 h does the source give for `N#Cc1cccc(CNCCNC(=O)Cc2cccc(F)c2)c1` here?
**A.** Its cytotoxicity at 70.5 h is 26.7%.

**Q.** For `COc1cccc(CCC(=O)Nc2c(C)nn(C)c2C)c1OC`, which cytotoxicity at 70.5 h is on record?
**A.** The cytotoxicity at 70.5 h was -10.8%.

**Q.** For `Cc1ccc(N2CCC3(CCN(Cc4nccs4)CC3)CC2)nn1`, which cytotoxicity at 70.5 h is on record?
**A.** The cytotoxicity at 70.5 h was -7.07%.

**Q.** For `Fc1cnc(N2CCCC3(CCN(Cc4ccsc4)C3)C2)nc1` (configuration not stated), which cytotoxicity at 70.5 h is on record?
**A.** The cytotoxicity at 70.5 h was 4.29%.

**Q.** Which cytotoxicity at 70.5 h does the source give for `COCCCN(C(=O)c1ccc(-n2ccnc2)cc1)C1CCN(C)CC1` here?
**A.** The cytotoxicity at 70.5 h was 35.1%.

**Q.** For `COc1ccc(CC(=O)N2CCCC(n3cccn3)C2)cc1F` (configuration not stated), which cytotoxicity at 70.5 h is on record?
**A.** Its cytotoxicity at 70.5 h is -6.84%.

**Q.** For `CCc1nc2ccccc2c(=O)n1CC1(O)CCN(C(=O)C2CC2)CC1`, which cytotoxicity at 70.5 h is on record?
**A.** The cytotoxicity at 70.5 h was -11.5%.

**Q.** Which cytotoxicity at 70.5 h does the source give for `COCC(=O)N1C[C@H](N(C)Cc2cncnc2)[C@H]2OCCC[C@H]21` here?
**A.** The cytotoxicity at 70.5 h was -8.78%.

**Q.** Which cytotoxicity at 70.5 h does the source give for `O=C(c1cc(-n2cnnn2)ccc1Cl)N1CCC2(CC1)OCCO2` here?
**A.** The cytotoxicity at 70.5 h was -7.22%.

**Q.** With `CCOc1ccc(CC(CNC(=O)c2ccco2)C(N)=O)cc1` (configuration not stated) as the compound, how does the cytotoxicity at 70.5 h read?
**A.** Its cytotoxicity at 70.5 h is -6.1%.

**Q.** With `Cc1nc(O)cc(C2CCN(Cc3cccc(F)c3F)C2)n1` (configuration not stated) as the compound, how does the cytotoxicity at 70.5 h read?
**A.** The cytotoxicity at 70.5 h was -14.5%.
